Measured values as given in ChEMBL document CHEMBL2046291, “Potent inhibition of norovirus 3CL protease by peptidyl α-ketoamides and α-ketoheterocycles” (Bioorg Med Chem Lett, 2012).

Tests used:
[1] = Inhibition of Norovirus recombinant 3CL protease using Edans-EPDFHLQGPEDLAK-Dabcyl as substrate for 30 mins by fluorometry
[2] = tested on: Norovirus; experiment: Antiviral activity against Norovirus infected in human HG23 cells; format: functional; details: read-out: ED50 (the source's name)

SMILES | IC50 [1] | EC50 [2]
CC(C)C[C@H](NC(=O)OCc1ccccc1)C(=O)N[C@@H](CC1CCNC1=O)C(=O)C(=O)NCc1ccccc1 (stereo not given in full) | 7.1 µM | 1.8 µM
CC(C)C[C@H](NC(=O)OCc1ccccc1)C(=O)N[C@@H](CC1CCNC1=O)C(O)C(=O)NC(C)C (stereo not given in full) | 45.3 µM | 4.1 µM
CC(C)C[C@H](NC(=O)OCc1ccccc1)C(=O)N[C@@H](CC1CCNC1=O)C(O)C(=O)NC1CC1 (stereo not given in full) | > 50 µM | > 10 µM
CCCCNC(=O)C(O)[C@H](CC1CCNC1=O)NC(=O)[C@H](CC(C)C)NC(=O)OCc1ccccc1 (stereo not given in full) | > 50 µM | > 20 µM
CCOC(=O)CNC(=O)C(O)[C@H](CC1CCNC1=O)NC(=O)[C@H](CC(C)C)NC(=O)OCc1ccccc1 (stereo not given in full) | > 50 µM | > 10 µM
CC(C)C[C@H](NC(=O)OCc1ccccc1)C(=O)N[C@@H](CC1CCNC1=O)C(O)C(=O)NC1CCCCC1 (stereo not given in full) | > 50 µM | > 20 µM
CC(C)C[C@H](NC(=O)OCc1ccccc1)C(=O)N[C@@H](CC1CCNC1=O)C(O)C(=O)NCc1ccccc1 (stereo not given in full) | > 50 µM | > 20 µM
CC(C)C[C@H](NC(=O)OCc1ccccc1)C(=O)N[C@@H](CC1CCNC1=O)C(O)C(=O)NC(C)(C)C (stereo not given in full) | > 50 µM | > 20 µM
CC(C)NC(=O)C(O)[C@H](CC1CCNC1=O)NC(=O)[C@H](Cc1ccccc1)NC(=O)OCc1ccccc1 (stereo not given in full) | 23.1 µM | 6.3 µM
CC(C)NC(=O)C(=O)[C@H](CC1CCNC1=O)NC(=O)[C@H](Cc1ccccc1)NC(=O)OCc1ccccc1 (stereo not given in full) | 21.5 µM | 4.2 µM
CC(C)C[C@H](NC(=O)OCc1ccccc1)C(=O)N[C@@H](CC1CCNC1=O)C(O)c1ncco1 (stereo not given in full) | > 50 µM | > 20 µM
CC(C)C[C@H](NC(=O)OCc1ccccc1)C(=O)N[C@@H](CC1CCNC1=O)C(O)c1nccs1 (stereo not given in full) | 12.3 µM | 4.3 µM
CC(C)C[C@H](NC(=O)OCc1ccccc1)C(=O)N[C@@H](CC1CCNC1=O)C(=O)c1nccs1 (stereo not given in full) | 8.8 µM | 4.2 µM

The next compounds have a lower IC50 [1] than those just listed; values first:

IC50 [1] | EC50 [2] | SMILES
5.3 µM | 2.8 µM | CC(C)C[C@H](NC(=O)OCc1ccccc1)C(=O)N[C@@H](CC1CCNC1=O)C(=O)C(=O)NC(C)C (stereo not given in full)
4.1 µM | 1.3 µM | CCCCNC(=O)C(=O)[C@H](CC1CCNC1=O)NC(=O)[C@H](CC(C)C)NC(=O)OCc1ccccc1 (stereo not given in full)
3.5 µM | 1.2 µM | CC(C)C[C@H](NC(=O)OCc1ccccc1)C(=O)N[C@@H](CC1CCNC1=O)C(=O)C(=O)NC1CCCCC1 (stereo not given in full)
3.4 µM | 1.1 µM | CC(C)C[C@H](NC(=O)OCc1ccccc1)C(=O)N[C@@H](CC1CCNC1=O)C(=O)C(=O)NC1CC1 (stereo not given in full)
2.8 µM | 1.1 µM | CC(C)C[C@H](NC(=O)OCc1ccccc1)C(=O)N[C@@H](CC1CCNC1=O)C(=O)C(=O)NC(C)(C)C (stereo not given in full)
2.3 µM | 0.9 µM | CC(C)C[C@H](NC(=O)OCc1ccccc1)C(=O)N[C@@H](CC1CCNC1=O)C(=O)c1ncco1 (stereo not given in full)
2.1 µM | 0.8 µM | CCOC(=O)CNC(=O)C(=O)[C@H](CC1CCNC1=O)NC(=O)[C@H](CC(C)C)NC(=O)OCc1ccccc1 (stereo not given in full)
